Assay results: patent publication US7429612B2, “Indoline compound and medicinal use thereof” (Kyoto Pharmaceutical Industries, Ltd., priority 2002, dated 2008)

Key:
[1] = Plasma concentration after oral administration; format: in vivo, SD male rats; details: 10 mg/kg oral, suspended in 5% gum arabic, HPLC
Procedure: A test compound (10 mg/kg) suspended in 5% gum arabic solution was forcibly administered orally to SD male rats weighing 200-250 g. At 0.5, 1, 3, 5 and 8 hours after administration, blood was taken without anesthesia and heparinized plasma was separated by conventional method. The concentration of the test compound in the plasma was determined by high performance liquid chromatography, the results of which are shown in Table 5.

[2] = tested on: hepatic ACAT; assay: Hepatic ACAT inhibitory activity (rabbit liver microsomes, [1-14C]-oleoyl CoA); format: biochemical, Japanese white rabbits; details: Concentration: 10^-6 M; inhibition of cholesteryl oleate production vs control
Procedure: A high cholesterol feed [a feed added with cholesterol (1%), Clea Japan, Inc.] was fed to male Japanese white rabbits weighing 2-2.5 kg at 100 g per day and the rabbits were bred for 4 weeks. The rabbits were killed by bleeding under anesthesia and liver was removed. The liver was homogenated, and the homogenate was centrifuged at 4° C. and 10,000 rpm for 15 min. The obtained supernatant was further centrifuged at 4° C. and 41,000 rpm for 60 minutes to give microsomal fractions. The microsomal suspension as an enzyme sample, dimethyl sulfoxide (DMSO, […]) or a test compound dissolved in DMSO (test compound solution 3 μl), and reaction substrate [1-^14C]-oleoyl CoA were added to 0.15 M phosphate buffer to the total amount of 300 μl. After incubation at 37° C. for 20 minutes, a chloroform-methanol mixture was added to stop the reaction. Water was added thereto and mixed, and the chloroform layer was separated. The solvent was evaporated to dryness, and the residue was redissolved in n-hexane. The mixture was subjected to thin layer chromatography using a silica gel plate. The spots of cholesteryl oleate on the silica gel plate were scraped, and quantitatively assayed on lo a liquid scintillation counter.

[3] = tested on: cholesterol secretion from the liver; assay: Mouse hepatic lipid secretion inhibitory effect (Triton WR-1339 method); format: in vivo, Slc:ICR mice; details: 10 mg/kg/day oral, plasma TC change in 3 hr after Triton WR-1339, read-out: Cholesterol secretion inhibitory rate (%)
Procedure: About 5 week-old male Slc:ICR mice (Japan SLC) were fed only in the daytime (9:00-18:00) and preliminarily bred for one week. During this period, free access to tap water was allowed during the nighttime, too. The mice were divided into a control group and a test compound group at 6 mice per group, such that the average and standard deviation of the body weight became almost the same. The blood (ca 80 μL) was drawn from the orbital venous plexus using a glass capillary under anesthesia, and at 30 min after blood drawing, a test compound suspended in 5% gum arabic solution in advance was orally administered at a dose of 10 mg/kg. At 30 min after the administration, Triton WR-1339 60 mg/mL solution prepared with physiological saline in advance was administered to the tail vein at a dose of 5 mL/kg. At 3 hr after the Triton WR-1339 administration, the blood was drawn again from the orbital venous plexus. Plasma was separated from the drawn blood, and plasma TC was measured using a commercially available measurement kit (Wako Pure Chemical Industries, Ltd.). Changes in blood-concentration in 3 hr after Triton WR-1339 administration were calculated and taken as the rate of cholesterol secretion from the liver. The rate of secretion was compared between the control group and the test compound group and the secretion inhibitory rate of the test compound was calculated.

[4] = tested on: THP-1 cell-derived macrophages; assay: THP-1 cell-derived macrophage foam cell formation suppressing effect (cholesterol ester accumulation inhibitory effect); format: cell-based; details: Homo sapiens, THP-1, 72 h, Concentration: 10^-6 M, acetyl LDL, 3 days culture, read-out: foam cell formation inhibitory rate (%)
Procedure: THP-1 (Dainippon Pharmaceutical Co., Ltd.) cells were passage cultured in RPMI-1640 medium supplemented with 10% fetal bovine serum (FBS), and the cells of passages 6-13 after purchase were used. The cells were suspended in FBS-containing RPMI-1640 medium to give a suspension having a concentration of 4×10^5 cells/mL. The cell suspension was inoculated to a 12 well microplate by 1 mL, and treated with phorbol 12-myristate 13-acetate (PMA, 200 nM) as a differentiation inducing agent into macrophage. Then acetyl LDL 400 μg/mL prepared separately from plasma-derived LDL of genetically hyperlipidemia rabbit (KHC rabbit, Japan Laboratory Animals, Inc.) was added. In addition, a test compound dissolved in DMSO and diluted with FBS-containing RPMI-1640 medium or a control solvent was added. After culture in a carbon dioxide incubator for 3 days, the cells were washed with phosphate buffered physiological saline (pH 7.0), and the lipid was extracted with n-hexane/isopropanol (3:2). The cells were dissolved in 1M-NaOH and the protein amount was measured. The free cholesterol and cholesterol ester in a lipid extraction sample was measured by the method of Kunitomo et al. (1983). The cholesterol ester was compared between the control cell and the test compound-treated cells, and the cholesterol ester accumulation inhibitory rate of the test compound was calculated.

[5] = tested on: LDL; assay: In vitro LDL peroxidation inhibitory effect (copper sulfate, thiobarbituric acid method); format: biochemical, KHC rabbits; details: Concentration: 10^-5 M; malondialdehyde production, 5 μM copper sulfate, 37° C., 1 hr
Procedure: The blood was drawn from the auricular artery of KHC rabbits weighing about 3 kg and LDL was separated by a conventional method. A solution (5 μL) of test compound in DMSO or DMSO was added (final concentration 10^−5 M) to LDL suspension (0.5 mg protein/mL, 0.5 mL), aqueous copper sulfate solution (5 μL, final concentration 5 μM) was added, and the mixture was incubated at 37° C. for 1 hr. After the completion of the incubation, EDTA·2Na solution (5 μL, final concentration 1 mM) was added, and lipoperoxide concentration in the-sample was measured by the Yagi's method. To be specific, lipoperoxide in the sample was color developed by the thiobarbituric acid method, measured as malondialdehyde and the activity of the test compound was shown by malondialdehyde production inhibitory rate (%) [to what level the production of malondialdehyde was inhibited as compared to control].

SMILES	Maximum concentration in blood [1]	Hepatic ACAT inhibitory ratio (%) [2]	inhibition at 1 µM [4]	also measured
CCCN1CCc2c(C)c(NS(N)(=O)=O)c(C)c(NC(=O)C(C)(C)C)c21.Cl [Example 17, N-(4,6-dimethyl-1-propyl-5-sulfamoylaminoindolin-7-yl)-2,2-dimethylpropanamide hydrochloride]	–	86.4%	–	inhibition in vivo at 10 mg/kg [3]: 44.4%
CCCCCN1CCc2c(C)c(NS(N)(=O)=O)c(C)c(NC(=O)C(C)(C)C)c21.Cl [Example 18, N-(4,6-dimethyl-1-pentyl-5-sulfamoylaminoindolin-7-yl)-2,2-dimethylpropanamide hydrochloride]	–	96.7%	93%	inhibition in vivo at 10 mg/kg [3]: 41.4%
CCCCCCN1CCc2c(C)c(NS(C)(=O)=O)c(C)c(NC(=O)C(C)(C)C)c21 [Example 22, N-(1-hexyl-5-methanesulfonylamino-4,6-dimethylindolin-7-yl)-2,2-dimethylpropanamide]	1.12 µg/mL	–	–	–
CCCN1c2c(c(C)c(NS(N)(=O)=O)c(C)c2NC(=O)C(C)(C)C)CC1C.Cl (centres unmarked) [Example 53, N-(2,4,6-trimethyl-1-propyl-5-sulfamoylaminoindolin-7-yl)-2,2-dimethylpropanamide hydrochloride]	1.31 µg/mL	–	70%	–
CCCN1c2c(c(C)c(NS(N)(=O)=O)c(C)c2NC(=O)C(C)(C)C)CC1CSC.Cl (centres unmarked) [Example 57, N-(4,6-dimethyl-2-methylthiomethyl-1-propyl-5-sulfamoylaminoindolin-7-yl)-2,2-dimethylpropanamide hydrochloride]	–	94.2%	79.9%	–
CCCN1c2c(c(C)c(NS(N)(=O)=O)c(C)c2NC(=O)C(C)(C)C)CC1CSCC.Cl (centres unmarked) [Example 59, N-(2-ethylthiomethyl-4,6-dimethyl-1-propyl-5-sulfamoylaminoindolin-7-yl)-2,2-dimethylpropanamide hydrochloride]	–	98.1%	92.1%	–
CC(C)(Sc1cc(C(C)(C)C)c(O)c(C(C)(C)C)c1)Sc1cc(C(C)(C)C)c(O)c(C(C)(C)C)c1 [Probucol]	–	–	–	LDL peroxidation inhibitory ratio (%) [5]: 33.8%

More lines, main results first:

Maximum concentration in blood [1]	SMILES	Hepatic ACAT inhibitory ratio (%) [2]	inhibition at 1 µM [4]	also measured
1.98 µg/mL	CCCCCN1CCc2c(C)c(NS(C)(=O)=O)c(C)c(NC(=O)C(C)(C)C)c21 [Example 11, N-(5-methanesulfonylamino-4,6-dimethyl-1-pentylindolin-7-yl)-2,2-dimethylpropanamide]	–	–	–
3.05 µg/mL	CCCCN1CCc2c(C)c(NS(C)(=O)=O)c(C)c(NC(=O)C(C)(C)C)c21 [Example 12, N-(1-butyl-5-methanesulfonylamino-4,6-dimethylindolin-7-yl)-2,2-dimethylpropanamide]	–	–	–
1.36 µg/mL	Cc1c2c(c(NC(=O)C(C)(C)C)c(C)c1NS(C)(=O)=O)N(CCC(C)C)CC2 [Example 13, N-[5-methanesulfonylamino-4,6-dimethyl-1-(3-methylbutyl)indolin-7-yl]-2,2-dimethylpropanamide]	–	–	–
2.30 µg/mL	CCCN1CCc2c(C)c(NS(C)(=O)=O)c(C)c(NC(=O)C(C)(C)C)c21 [Example 14, N-(5-methanesulfonylamino-4,6-dimethyl-1-propylindolin-7-yl)-2,2-dimethylpropanamide]	–	–	–
1.68 µg/mL	Cc1c2c(c(NC(=O)C(C)(C)C)c(C)c1NS(C)(=O)=O)N(CC(C)C)CC2 [Example 15, N-[5-methanesulfonylamino-4,6-dimethyl-1-(2-methylpropyl)indolin-7-yl]-2,2-dimethylpropanamide]	–	–	–
2.90 µg/mL	CCN1CCc2c(C)c(NS(C)(=O)=O)c(C)c(NC(=O)C(C)(C)C)c21 [Example 16, N-(1-ethyl-5-methanesulfonylamino-4,6-dimethylindolin-7-yl)-2,2-dimethylpropanamide]	–	–	–
2.03 µg/mL	Cc1c2c(c(NC(=O)C(C)(C)C)c(C)c1NS(C)(=O)=O)N(C1CCCC1)CC2 [Example 41, N-(1-cyclopentyl-5-methanesulfonylamino-4,6-dimethylindolin-7-yl)-2,2-dimethylpropanamide]	97.3%	76.5%	inhibition in vivo at 10 mg/kg [3]: 58.5%
